The text below walks through data of patent publication US9440982B2 (Eolas Therapeutics, Inc., priority 2012, dated 2016).

In one data set the target is T1, OX1 (Homo sapiens, UniProt O43613).
T1 construct: expressed in transfected cells; host or cells: CHO (CHO-OX1, kept under selection antibiotic)
T1 sequence (O43613 1-425): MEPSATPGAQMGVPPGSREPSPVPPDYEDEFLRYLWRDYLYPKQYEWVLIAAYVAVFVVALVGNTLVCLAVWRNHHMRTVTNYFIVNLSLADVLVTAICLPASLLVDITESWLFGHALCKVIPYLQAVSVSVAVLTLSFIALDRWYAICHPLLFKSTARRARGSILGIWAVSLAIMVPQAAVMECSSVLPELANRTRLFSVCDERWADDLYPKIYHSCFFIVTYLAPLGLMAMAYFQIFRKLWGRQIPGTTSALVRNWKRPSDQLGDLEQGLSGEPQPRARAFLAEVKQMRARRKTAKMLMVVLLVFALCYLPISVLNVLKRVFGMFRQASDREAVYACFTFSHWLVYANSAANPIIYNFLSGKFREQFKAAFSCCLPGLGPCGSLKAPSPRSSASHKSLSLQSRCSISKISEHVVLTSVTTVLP
In words: Orexin receptor cell-based functional assay, [Ca2+]i by FLIPR, CHO-OX1 cells. The settings on record: CHO-OX1 cells, [Ca2+]i by FLIPR, antagonist dose-range 0.1 nM-10 μM, EC90 of OXA; read-out: OX1. A digest of the protocol: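 Antagonist mode FLIPR calcium read in CHO-OX1 and CHO-OX2 lines. Test compounds, dosed 0.1 nM-10 μM, preincubated 30 min after 37° C dye loading with 2.5 mM probenecid (calcium4 for 30 min or calcium6 for 2 h).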

The target of another data set is T2, CYP3A4 (Homo sapiens, UniProt P08684).
T2 construct: pre-incubated with human liver microsomes and NADPH; from tissue; host or cells: human liver microsomes
In words: Cytochrome P450 inhibition assay (midazolam hydroxylation). Format: in vitro ADME. Conditions: human, human liver microsomes, probe midazolam (hydroxylation to 1′-hydroxymidazolam), 10 μM test compound, midazolam at approximately its Km. A digest of the protocol:
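Percent inhibition of midazolam 1′-hydroxylation by 10 μM compound was measured, midazolam dosed at about Km. Time-dependent inhibition was probed by a 30 min preincubation of compound with human liver microsomes and NADPH ahead of substrate, compared against samples without preincubation.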

T2 sequence (P08684 whole entry): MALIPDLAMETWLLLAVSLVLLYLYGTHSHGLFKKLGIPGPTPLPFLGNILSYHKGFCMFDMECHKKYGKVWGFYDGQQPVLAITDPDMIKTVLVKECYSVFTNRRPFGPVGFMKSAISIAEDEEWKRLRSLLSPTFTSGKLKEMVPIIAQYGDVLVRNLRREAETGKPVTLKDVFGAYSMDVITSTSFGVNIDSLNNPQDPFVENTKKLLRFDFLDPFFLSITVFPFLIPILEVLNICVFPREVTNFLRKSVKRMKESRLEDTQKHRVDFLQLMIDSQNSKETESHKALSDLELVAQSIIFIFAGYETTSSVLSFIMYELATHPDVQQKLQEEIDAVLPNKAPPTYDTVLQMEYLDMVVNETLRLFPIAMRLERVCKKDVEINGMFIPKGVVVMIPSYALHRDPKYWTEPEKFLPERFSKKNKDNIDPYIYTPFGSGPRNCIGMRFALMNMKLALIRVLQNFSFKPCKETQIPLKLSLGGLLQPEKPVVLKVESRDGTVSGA

Regarding `Cc1ccc(-n2nccn2)c(C(=O)N2CCC[C@@H](C)[C@H]2CNc2ncc(Cl)cn2)n1` [Example A177, ((2S,3R)-2-(((5-Chloropyrimidin-2-yl)amino)methyl)-3-methylpiperidin-1-yl)(6-methyl-3-(2H-1,2,3-triazol-2-yl)pyridin-2-yl)methanone], on OX1, the IC50 came out at 5 nM. Also, on CYP3A4, 10 µM produced 39% inhibition.
On to `Cc1cccc(-c2ncccn2)c1C(=O)N1CCC[C@@H](C)[C@H]1CNc1ncc(C(F)(F)F)cn1` [Example A307, ((2S,3R)-3-Methyl-2-(((5-(trifluoromethyl)pyrimidin-2-yl)amino)methyl)piperidin-1-yl)(2-methyl-6-(pyrimidin-2-yl)phenyl)methanone], for which the IC50 at OX1 amounted to 250 nM. The same compound showed an inhibition at 10 µM against CYP3A4 of 46%.
Take `Cc1ccc(-c2cnn(C)c2)c(C(=O)N2CCC[C@@H](C)[C@H]2CNc2ncccc2C(F)(F)F)c1` [Example A93, ((2S,3R)-3-Methyl-2-(((3-(trifluoromethyl)pyridin-2-yl)amino)methyl)piperidin-1-yl)(5-methyl-2-(1-methyl-1H-pyrazol-4-yl)phenyl)methanone]: the IC50 at OX1 came to 460 nM. The same compound displayed an inhibition at 10 µM against CYP3A4 of 96%.
The matching figures for `Cc1ccc(-c2ncccn2)c(C(=O)N2CCC[C@@H](C)[C@H]2CNc2ccc(Cl)cn2)c1` [Example A138, ((2S,3R)-2-(((5-Chloropyridin-2-yl)amino)methyl)-3-methylpiperidin-1-yl)(5-methyl-2-(pyrimidin-2-yl)phenyl)methanone]: 12 nM and 75%.
For `Cc1ccc(-n2nccn2)c(C(=O)N2CCC[C@@H](C)[C@H]2CNc2ncc(F)cn2)c1` [Example A171, ((2S,3R)-2-(((5-Fluoropyrimidin-2-yl)amino)methyl)-3-methylpiperidin-1-yl)(5-methyl-2-(2H-1,2,3-triazol-2-yl)phenyl)methanone] the same measures were 370 nM and 36%.
The matching figures for `C[C@@H]1CCCN(C(=O)c2cc(F)c(F)cc2-n2nccn2)[C@@H]1CNc1ncc(Cl)cn1` [Example A247, ((2S,3R)-2-(((5-Chloropyrimidin-2-yl)amino)methyl)-3-methylpiperidin-1-yl)(4,5-difluoro-2-(2H-1,2,3-triazol-2-yl)phenyl)methanone]: above 100 nM and 65%.
`Cc1ccc(-c2cnn(C)c2)c(C(=O)N2CCC[C@@H](C)[C@H]2CNc2nc3cc(Cl)ccc3o2)c1` [Example A12, ((2S,3R)-2-(((5-chlorobenzo[d]oxazol-2-yl)amino)methyl)-3-methylpiperidin-1-yl)(5-methyl-2-(1-methyl-1H-pyrazol-4-yl)phenyl)methanone]: on OX1, the IC50 is 20 nM. At CYP3A4, this compound showed an inhibition at 10 µM of 98%.
For `Cc1cncc(-c2ccc(C)cc2C(=O)N2CCC[C@@H](C)[C@H]2CNc2ccc(C(F)(F)F)cn2)c1` [Example A5, ((2S,3R)-3-Methyl-2-(((5-(trifluoromethyl)pyridin-2-yl)amino)methyl)piperidin-1-yl)(5-methyl-2-(5-methylpyridin-3-yl)phenyl)methanone], the IC50 at OX1 was 6 nM. The inhibition at 10 µM at CYP3A4 was 98%.
For `Cc1ccc(-n2cnc(C)n2)c(C(=O)N2CCC[C@@H](C)[C@H]2CNc2ccc(C(F)(F)F)cn2)c1` [Example A17, ((2S,3R)-3-Methyl-2-(((5-(trifluoromethyl)pyridin-2-yl)amino)methyl)piperidin-1-yl)(5-methyl-2-(3-methyl-1H-1,2,4-triazol-1-yl)phenyl)methanone] the same measures were 20 nM and 95%.
As to `C[C@@H]1CCCN(C(=O)c2cc(Cl)ccc2-n2nccn2)[C@@H]1CNc1ccc(C(F)(F)F)nn1` [Example A162, (5-Chloro-2-(2H-1,2,3-triazol-2-yl)phenyl)((2S,3R)-3-methyl-2-(((6-(trifluoromethyl)pyridazin-3-yl)amino)methyl)piperidin-1-yl)methanone], the IC50 at OX1 is 15 nM. Also, the inhibition at 10 µM on CYP3A4 amounted to 76%.
The matching figures for `C[C@@H]1CCCN(C(=O)c2cc(F)c(F)cc2-c2ncccn2)[C@@H]1CNc1ncc(Cl)cn1` [Example A244, ((2S,3R)-2-(((5-Chloropyrimidin-2-yl)amino)methyl)-3-methylpiperidin-1-yl) (4,5-difluoro-2-(pyrimidin-2-yl)phenyl)methanone]: 1300 nM and 70%.
For the compound `Cc1ccc(-n2nccn2)c(C(=O)N2CCC[C@@H](C)[C@H]2CNc2ncccc2C)c1` [Example A99, ((2S,3R)-3-Methyl-2-(((3-methylpyridin-2-yl)amino)methyl)piperidin-1-yl)(5-methyl-2-(2H-1,2,3-triazol-2-yl)phenyl)methanone], the IC50 at OX1 came out at 340 nM. On CYP3A4, the inhibition at 10 µM turned out to be 52%.
The matching figures for `Cc1ccc(-n2ccc(C)n2)c(C(=O)N2CCC[C@@H](C)[C@H]2CNc2ccc(Cl)cn2)c1` [Example A120, ((2S,3R)-2-(((5-Chloropyridin-2-yl)amino)methyl)-3-methylpiperidin-1-yl)(5-methyl-2-(3-methyl-1H-pyrazol-1-yl)phenyl)methanone]: 21 nM and 90%.
The matching figures for `Cc1ccc(-n2nccn2)c(C(=O)N2CCC[C@@H](C)[C@H]2CNc2ncc(C#N)cn2)c1` [Example A134, 2-((((2S,3R)-3-Methyl-1-(5-methyl-2-(2H-1,2,3-triazol-2-yl)benzoyl)piperidin-2-yl)methyl)amino)pyrimidine-5-carbonitrile]: 150 nM and 50%.
Take `C[C@@H]1CCCN(C(=O)c2cc(F)ccc2-n2nccn2)[C@@H]1CNc1ccc(C(F)(F)F)nn1` [Example A208, (5-Fluoro-2-(2H-1,2,3-triazol-2-yl)phenyl)((2S,3R)-3-methyl-2-(((6-(trifluoromethyl)pyridazin-3-yl)amino)methyl)piperidin-1-yl)methanone]: at OX1, the IC50 stood at 200 nM. The inhibition at 10 µM at CYP3A4 was determined as 59%.
As to `Cc1ccc(-c2ncccn2)c(C(=O)N2CCC[C@@H](C)[C@H]2CNc2ncc(C(F)(F)F)cn2)c1` [Example A212, ((2S,3R)-3-Methyl-2-(((5-(trifluoromethyl)pyrimidin-2-yl)amino)methyl)piperidin-1-yl)(5-methyl-2-(pyrimidin-2-yl)phenyl)methanone], on OX1, the IC50 was 5 nM. In addition, the inhibition at 10 µM at CYP3A4 was 49%.
As for `Cc1ccc(-n2ccc(C)n2)c(C(=O)N2CCC[C@@H](C)[C@H]2CNc2nc3cc(Cl)ccc3o2)c1` [Example A115, ((2S,3R)-2-(((5-Chlorobenzo[d]oxazol-2-yl)amino)methyl)-3-methylpiperidin-1-yl)(5-methyl-2-(3-methyl-1H-pyrazol-1-yl)phenyl)methanone], at OX1, the IC50 turned out to be 16 nM. For the same compound, the inhibition at 10 µM on CYP3A4 is 90%.
In the case of `Cc1ccc(-c2cnn(C(C)C)c2)c(C(=O)N2CCC[C@@H](C)[C@H]2CNc2ccc(C(F)(F)F)cn2)c1` [Example A111, (2-(1-Isopropyl-1H-pyrazol-4-yl)-5-methylphenyl)((2S,3R)-3-methyl-2-(((5-(trifluoromethyl)pyridin-2-yl)amino)methyl)piperidin-1-yl)methanone], the IC50 at OX1 is 17 nM. At 10 µM the inhibition against CYP3A4 was 96%.
